What was measured:
in vitro = conditions: human, GES1 cells
[1] = Selectivity index, ratio of IC50 for human GES-1 cells to IC50 for human MDA-MB-231 cells
Histone deacetylase 1 = Histone deacetylase 1 (Homo sapiens, UniProt Q13547); experiment: Inhibition of HDAC1 (unknown origin) using Boc-Lys(Ac)-AMC as substrate incubated for 30 mins by fluorescence based analysis
[2] = biological target: Bromodomain-containing protein 4 (Homo sapiens, UniProt O60885); experiment: Inhibition of recombinant BRD4 BD1 (unknown origin) using H4KAc as substrate incubated for 30 mins by HTRF analysis
MDA-MB-231 [3] = experiment: cells; conditions: Homo sapiens, MDA-MB-231, 48 h
[4] = biological target: Tyrosine-protein kinase JAK1 (Homo sapiens, UniProt P23458); experiment: Inhibition of JAK1 (unknown origin) incubated for 40 mins in presence of ATP by Kinase-glo luminescent assay
[5] = In vivo inhibition of BRD4 in athymic BALB/c nude mouse xenografted with human MDA-MB-231 cells assessed as fold change in c-Myc level in tumor at 25 mg/kg, ip administered for 28 consecutive days by Western blot analysis (reference value: 1); assay type: functional; conditions: time 28 day
[6] = MRT (0 to t) in ICR (CD-1) mouse at 50 mg/kg, ip measured for 24 hrs by LC-MS/MS analysis; assay type: ADME, organism-based; conditions: in vivo
MDA-MB-231 [7] = experiment: Antitumor activity against human MDA-MB-231 cells xenografted in athymic BALB/c nude mouse assessed as the tumor growth inhibition at 25 mg/kg/day, ip administered for 28 days and measured every 3 days by vernier caliper analysis relative to control; assay type: functional; conditions: MDA-MB-231, 672 h, time 28 day, read-out: TGI
[8] = MRT (0 to t) in ICR (CD-1) mouse at 10 mg/kg, iv measured for 24 hrs by LC-MS/MS analysis; assay type: ADME, organism-based; conditions: in vivo
[9] = AUC (0 to t) in ICR (CD-1) mouse at 50 mg/kg, ip measured for 24 hrs by LC-MS/MS analysis; assay type: ADME, organism-based; parameters: dose 50 mg/kg, time 24 hrs, route ip; conditions: in vivo
[10] = In vivo inhibition of JAK1 in athymic BALB/c nude mouse xenografted with human MDA-MB-231 cells assessed as fold change in STAT3 level in tumor at 25 mg/kg, ip administered for 28 consecutive days by Western blot analysis (reference value: 1); assay type: functional; conditions: time 28 day
MDA-MB-231 [11] = experiment: Antiproliferative activity against human MDA-MB-231 cells assessed as inhibition of cell growth incubated for 48 hrs in presence of SAHA by MTT assay; assay type: functional, cell-based; conditions: MDA-MB-231, 48 h
[12] = Cmax in ICR (CD-1) mouse at 50 mg/kg, ip measured for 24 hrs by LC-MS/MS analysis; assay type: ADME, organism-based; parameters: time 24 hrs, dose 50 mg/kg, route ip; conditions: in vivo
GES1 = experiment: Cytotoxicity against human GES1 cells at 1 uM incubated for 48 hrs by MTT assay; assay type: toxicity, cell-based; conditions: ges1, 48 h
[13] = AUC (0 to t) in ICR (CD-1) mouse at 10 mg/kg, iv measured for 24 hrs by LC-MS/MS analysis; assay type: ADME, organism-based; parameters: dose 10 mg/kg, time 24 hrs, route iv; conditions: in vivo
[14] = Metabolic stability in mouse liver microsomes assessed as half life in presence of NADPH by LC-MS/MS analysis; assay type: ADME, Microsome
[15] = Half life in ICR (CD-1) mouse at 50 mg/kg, ip measured for 24 hrs by LC-MS/MS analysis; assay type: ADME, organism-based; conditions: in vivo
[16] = Toxicity in athymic BALB/c nude mouse xenografted with human MDA-MB-231 cells assessed as reduction in body weight at 50 mg/kg/day, ip administered for 2 days; assay type: organism-based; conditions: in vivo, 48 h, time 2 day
[17] = Bioavailability in ICR (CD-1) mouse at 50 mg/kg, ip measured for 24 hrs by LC-MS/MS analysis; assay type: ADME, organism-based; conditions: ICR (CD-1), in vivo
[18] = Cytotoxicity against human GES1 cells assessed as inhibition of cell growth incubated for 48 hrs in presence of SAHA by MTT assay; assay type: toxicity, cell-based
[19] = Metabolic stability in mouse liver microsomes assessed as intrinsic clearance in presence of NADPH by LC-MS/MS analysis; assay type: ADME, Microsome; conditions: read-out: CLH
[20] = Half life in ICR (CD-1) mouse at 10 mg/kg, iv measured for 24 hrs by LC-MS/MS analysis; assay type: ADME, organism-based; conditions: in vivo
[21] = In vivo inhibition of JAK1 in athymic BALB/c nude mouse xenografted with human MDA-MB-231 cells assessed as fold change in phosphorylated STAT3 level at Tyr705 residue in tumor at 25 mg/kg, ip administered for 28 consecutive days by Western blot analysis (reference value: 1); assay type: functional; conditions: time 28 day
[22] = Tmax in ICR (CD-1) mouse at 50 mg/kg, ip measured for 24 hrs by LC-MS/MS analysis; assay type: ADME, organism-based; conditions: in vivo
[23] = Cmax in ICR (CD-1) mouse at 10 mg/kg, iv measured for 24 hrs by LC-MS/MS analysis; assay type: ADME, organism-based; parameters: time 24 hrs, dose 10 mg/kg, route iv; conditions: in vivo
[24] = Volume of distribution at steady state in ICR (CD-1) mouse at 10 mg/kg, iv measured for 24 hrs by LC-MS/MS analysis; assay type: ADME, organism-based; conditions: in vivo
[25] = In vivo inhibition of HDAC1 in athymic BALB/c nude mouse xenografted with human MDA-MB-231 cells assessed as fold change in acetyl-histone H3 level in tumor at 25 mg/kg, ip administered for 28 consecutive days by Western blot analysis (reference value: 1); assay type: functional; conditions: time 28 day
[26] = Toxicity in athymic BALB/c nude mouse xenografted with human MDA-MB-231 cells assessed as reduction in body weight at 25 mg/kg/day, ip administered for 28 consecutive days; assay type: organism-based; conditions: in vivo, 672 h, time 28 day

Chain of Histone deacetylase 1 (Q13547 whole entry): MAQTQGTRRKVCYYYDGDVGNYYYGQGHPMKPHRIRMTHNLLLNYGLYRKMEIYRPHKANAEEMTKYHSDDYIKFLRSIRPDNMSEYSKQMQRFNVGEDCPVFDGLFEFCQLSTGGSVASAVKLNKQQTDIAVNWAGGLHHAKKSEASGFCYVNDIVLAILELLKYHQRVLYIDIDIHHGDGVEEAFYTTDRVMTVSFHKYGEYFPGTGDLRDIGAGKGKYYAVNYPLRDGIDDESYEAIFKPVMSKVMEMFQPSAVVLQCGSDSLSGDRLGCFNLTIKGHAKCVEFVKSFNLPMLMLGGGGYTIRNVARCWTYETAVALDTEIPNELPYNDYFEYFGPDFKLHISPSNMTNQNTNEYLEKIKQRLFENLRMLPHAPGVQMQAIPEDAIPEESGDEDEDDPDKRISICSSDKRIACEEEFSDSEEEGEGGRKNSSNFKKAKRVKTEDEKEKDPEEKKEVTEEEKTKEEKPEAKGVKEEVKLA
Chain of Tyrosine-protein kinase JAK1 (P23458 whole entry): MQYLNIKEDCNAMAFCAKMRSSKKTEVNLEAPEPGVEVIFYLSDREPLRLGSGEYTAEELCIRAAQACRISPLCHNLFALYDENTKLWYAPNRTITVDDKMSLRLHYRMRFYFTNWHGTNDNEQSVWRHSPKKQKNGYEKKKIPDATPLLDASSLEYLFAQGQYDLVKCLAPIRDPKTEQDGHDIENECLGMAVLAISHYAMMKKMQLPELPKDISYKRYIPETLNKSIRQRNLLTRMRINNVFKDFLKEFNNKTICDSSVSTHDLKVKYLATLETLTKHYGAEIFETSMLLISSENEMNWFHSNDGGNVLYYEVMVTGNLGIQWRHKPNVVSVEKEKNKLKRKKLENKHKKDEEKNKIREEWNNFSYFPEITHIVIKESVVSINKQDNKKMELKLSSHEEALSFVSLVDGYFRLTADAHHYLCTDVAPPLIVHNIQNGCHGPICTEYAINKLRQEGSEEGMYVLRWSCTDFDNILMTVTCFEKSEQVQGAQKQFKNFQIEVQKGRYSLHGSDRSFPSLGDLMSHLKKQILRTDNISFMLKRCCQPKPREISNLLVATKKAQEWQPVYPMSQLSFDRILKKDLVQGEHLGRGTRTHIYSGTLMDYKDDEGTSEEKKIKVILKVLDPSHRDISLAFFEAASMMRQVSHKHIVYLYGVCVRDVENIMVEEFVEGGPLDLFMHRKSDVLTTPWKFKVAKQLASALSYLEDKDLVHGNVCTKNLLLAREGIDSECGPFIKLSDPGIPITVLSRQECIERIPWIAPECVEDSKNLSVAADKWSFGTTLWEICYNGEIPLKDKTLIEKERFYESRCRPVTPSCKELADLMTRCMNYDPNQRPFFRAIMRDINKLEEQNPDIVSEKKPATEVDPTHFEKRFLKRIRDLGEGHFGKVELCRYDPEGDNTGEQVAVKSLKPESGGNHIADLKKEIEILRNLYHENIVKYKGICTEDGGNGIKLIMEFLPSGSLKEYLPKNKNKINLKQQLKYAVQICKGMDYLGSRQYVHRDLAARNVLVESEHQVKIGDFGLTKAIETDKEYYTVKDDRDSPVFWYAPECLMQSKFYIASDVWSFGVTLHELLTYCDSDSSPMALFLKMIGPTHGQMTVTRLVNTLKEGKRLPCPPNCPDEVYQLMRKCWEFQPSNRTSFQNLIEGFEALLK

| IC50 at 48 h (in vitro) | IC50 (Histone deacetylase 1) | IC50 [2] | IC50 (MDA-MB-231 [3]) | IC50 [4] | MRT last at 24 h [6] | MRT(t) [8] | AUC(0-t) at 24 h [9] | Cmax [12] | AUCt [13] | half-life [15] | bioavailability [17] | t1/2 [20] | Tmax [22] | Cmax [23] | Vdss [24] | Compound | selectivity ratio [1] | further results |
| --- | --- | --- | --- | --- | --- | --- | --- | --- | --- | --- | --- | --- | --- | --- | --- | --- | --- | --- |
| 11.5 µM | > 5000 nM | 2360 nM | 4500 nM | 10.4 nM | – | – | – | – | – | – | – | – | – | – | – | CCCN(N)C(=O)c1ccc(Nc2nc(Nc3ccc(N4CCN(C)CC4)c(F)c3)ncc2C)cc1 | 2.5 | – |
| 28.6 µM | 380 nM | 1290 nM | 3400 nM | 14.6 nM | – | – | – | – | – | – | – | – | – | – | – | Cc1cnc(Nc2ccc(/C=C/C(=O)NO)cc2)nc1Nc1ccc(Cl)c(NS(=O)(=O)C(C)(C)C)c1 | 7.1 | – |
| 9.7 µM | > 5000 nM | 1810 nM | 2200 nM | 5.9 nM | – | – | – | – | – | – | – | – | – | – | – | Cc1cnc(Nc2ccc(N3CCN(C)CC3)c(F)c2)nc1Nc1ccc(C(=O)Nc2ccccc2N)cc1 | 4.4 | – |
| 0.89 µM | – | – | 1400 nM | – | 2.33 h | 1.89 h | 14500 ng·h/mL | 9750 ng/mL | 2825 ng·h/mL | 173 min | 102% | 5.45 h | 4.8 min | 4430 ng/mL | 8.74 L/kg | Cc1cnc(Nc2ccc(OCCN3CCCC3)cc2)nc1Nc1cccc(S(=O)(=O)NC(C)(C)C)c1 [FEDRATINIB] | – | fold change (FC) [5]: 1.1; inhibition in vivo at 25 mg/kg/day (MDA-MB-231 [7]): 32%; fold change (FC) [10]: 1.3; IC50 (MDA-MB-231 [11]): 460 nM; Activity (GES1): Toxic; half-life [14]: 5.6 min; Activity [16]: Toxic; IC50 at 48 h [18]: 610 nM; CLint scaled [19]: 976 mL/min/kg; fold change (FC) [21]: 0.5; fold change (FC) [25]: 0.8; Activity [26]: Non-Toxic |
| – | – | – | – | – | 0.67 h | 0.12 h | 2550 ng·h/mL | 3930 ng/mL | 783 ng·h/mL | 81 min | 65% | 0.29 h | 4.8 min | 6640 ng/mL | 1.59 L/kg | O=C(CCCCCCC(=O)Nc1ccccc1)NO [VORINOSTAT] | – | – |

Reference: ChEMBL document CHEMBL5370605, “Discovery of Novel Fedratinib-Based HDAC/JAK/BRD4 Triple Inhibitors with Remarkable Antitumor Activity against Triple Negative Breast Cancer” (J Med Chem, 2023)
